# Like-named read-outs stand apart in the source and are kept apart here.
# Key:
# [1] = system: Key Broadleaf Weed and Crop Species; test: Post-emergent Test II herbicidal activity (Table 5); type: in vivo; conditions: post-emergence, 336 h, 14 days after application; for pest or weed control at 70 g/ha: application rate 70 g ai/ha; for pest or weed control at 140 g/ha: application rate 140 g ai/ha
# How it was run: (§1)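 Foliar application at 187 L/ha to greenhouse-grown seedlings (first or second true leaf); subirrigation thereafter. Visual 0–100% injury at 14 d relative to untreated plants.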
# [2] = system: Key Grass and Sedge Weeds as well as Grass Crops; test: Post-emergent Test II herbicidal activity (Table 6); type: in vivo; conditions: post-emergence, 336 h; for pest or weed control at 70 g/ha: 70 g ai/ha; for pest or weed control at 140 g/ha: 140 g ai/ha
# How it was run: as §1
# [3] = ABUTH: velvetleaf (Abutilon theophrasti), read-out: Visual Growth Reduction (%) 14 Days After Application, ABUTH
# [4] = AMARE: redroot pigweed (Amaranthus retroflexus), read-out: Visual Growth Reduction (%) 14 Days After Application, AMARE
# [5] = BRSNN: oilseed-rape, canola (Brassica napus), read-out: Visual Growth Reduction (%) 14 Days After Application, BRSNN
# [6] = CHEAL: lambsquarters (Chenopodium album), read-out: Visual Growth Reduction (%) 14 Days After Application, CHEAL
# [7] = EPHHL: wild poinsettia (Euphorbia heterophylla), read-out: Visual Growth Reduction (%) 14 Days After Application, EPHHL
# [8] = HELAN: sunflower (Helianthus annuus), read-out: Visual Growth Reduction (%) 14 Days After Application, HELAN
# [9] = VIOTR: wild pansy (Viola tricolor), read-out: Visual Growth Reduction (%) 14 Days After Application, VIOTR
# [10] = CYPES: yellow nutsedge (Cyperus esculentus), read-out: Visual Growth Reduction (%) 14 Days After Application, CYPES
# [11] = DIGSA: crabgrass (Digitaria sanguinalis), read-out: Visual Growth Reduction (%) 14 Days After Application, DIGSA
# [12] = ECHCG: barnyardgrass (Echinochloa crus-galli), read-out: Visual Growth Reduction (%) 14 Days After Application, ECHCG
# [13] = ORYSA: rice (Oryza sativa), crop, read-out: Visual Growth Reduction (%) 14 Days After Application, ORYSA
# [14] = SETFA: giant foxtail (Setaria faberi), read-out: Visual Growth Reduction (%) 14 Days After Application, SETFA
# [15] = SORVU: grain sorghum (Sorghum vulgare), read-out: Visual Growth Reduction (%) 14 Days After Application, SORVU
# [16] = TRZSS (wheat, Triticum aestivum), crop, read-out: Visual Growth Reduction (%) 14 Days After Application, TRZSS
# [17] = ZEAMX: maize, corn (Zea mays), crop, read-out: Visual Growth Reduction (%) 14 Days After Application, ZEAMX
structure (smiles),measurement,setting,value
Nc1c(F)c(-c2ccc(I)cc2F)nc(C(=O)O)c1Cl [Compound 169],pest or weed control at 70 g/ha,[1]; [3],85 to 94%
same,pest or weed control at 140 g/ha,[1]; [3],85 to 94%
same,pest or weed control at 70 g/ha,[1]; [4],95 to 100%
same,pest or weed control at 140 g/ha,[1]; [4],95 to 100%
same,pest or weed control at 70 g/ha,[1]; [5],95 to 100%
same,pest or weed control at 140 g/ha,[1]; [5],95 to 100%
same,pest or weed control at 70 g/ha,[1]; [6],95 to 100%
same,pest or weed control at 140 g/ha,[1]; [6],95 to 100%
same,pest or weed control at 70 g/ha,[1]; [7],95 to 100%
same,pest or weed control at 140 g/ha,[1]; [7],95 to 100%
same,pest or weed control at 70 g/ha,[1]; [8],95 to 100%
same,pest or weed control at 140 g/ha,[1]; [8],95 to 100%
same,pest or weed control at 70 g/ha,[1]; [9],95 to 100%
same,pest or weed control at 140 g/ha,[1]; [9],95 to 100%
same,pest or weed control at 70 g/ha,[2]; [10],95 to 100%
same,pest or weed control at 140 g/ha,[2]; [10],95 to 100%
same,pest or weed control at 70 g/ha,[2]; [11],75 to 84%
same,pest or weed control at 140 g/ha,[2]; [11],85 to 94%
same,pest or weed control at 70 g/ha,[2]; [12],75 to 84%
same,pest or weed control at 140 g/ha,[2]; [12],75 to 84%
same,pest or weed control at 70 g/ha,[2]; [13],30 to 44%
same,pest or weed control at 140 g/ha,[2]; [13],30 to 44%
same,pest or weed control at 70 g/ha,[2]; [14],95 to 100%
same,pest or weed control at 140 g/ha,[2]; [14],95 to 100%
same,pest or weed control at 70 g/ha,[2]; [15],95 to 100%
same,pest or weed control at 140 g/ha,[2]; [15],95 to 100%
same,pest or weed control at 70 g/ha,[2]; [16],30 to 44%
same,pest or weed control at 140 g/ha,[2]; [16],45 to 59%
same,pest or weed control at 70 g/ha,[2]; [17],95 to 100%
same,pest or weed control at 140 g/ha,[2]; [17],95 to 100%
same,melting point,,152 to 155 °C

# From patent US9113629B2, “4-amino-6-(4-substituted-phenyl)-picolinates and 6-amino-2-(4-substituted-phenyl)-pyrimidine-4-carboxylates and their use as herbicides” (DOW AGROSCIENCES LLC, priority 2013, dated 2015)
